System: P. falciparum 3D7 growth, pLDH absorbance
Test: blood-stage malaria parasite growth potency – strain 3D7, dose response (AID 2305)

Row | SMILES | IC50 [µM]
1 | COc1ccc(-c2ccc(NC(=O)c3cccc(C#N)c3)cc2)cc1CN1CCNCC1 | 0.73
2 | CN(C)CCOc1ccc(-n2c(-c3nonc3N)nc3cncc(-c4ccc(F)cc4)c32)cc1 | 0.87
3 | CN1CCC(Oc2ccc(CN3CC[C@H](NC(=O)c4ccc(Cl)c(Cl)c4)C3)cc2Cl)C1 (stereo not given in full) | 0.88
4 | Oc1ccc(Cl)cc1CN1CCCC(COC(c2ccc(F)cc2)c2ccc(F)cc2)C1 (stereo not given) | 0.68
5 | COc1ccc(C(=O)N2CCC(C(=O)NC(C)c3ccc(-n4ccnc4)cc3)CC2)c2ccccc12 (stereo not given) | 1.13
6 | CCc1cccc2c(C#N)cn(CC(=O)NCCc3ccccc3)c12 | 0.89
7 | Cc1ccc(Cn2ncc(N3CCNCC3)c(Cl)c2=O)cc1NC(=O)Nc1ccc(-c2ccccc2)cc1 | 1.12
8 | Cc1ccc(NC(=O)c2ccc(CN3CCCN(CC4CCCCC4)CC3)cc2)cc1 | 0.8
9 | COc1ccc2c(NN=C(C)c3ccccn3)cc(C)nc2c1 | 0.72
10 | CN(C)CCNCc1cccc(-c2cccc(-c3nc4ccccc4[nH]3)c2)c1 | 0.77
11 | O=C(NC(Cc1ccccc1)C(=O)O)c1cc(=O)c2ccccc2o1 (stereo not given) | 0.19
12 | CN(c1ccccc1)c1ccnc(/N=C(\N)Nc2ccc(Cl)cc2)n1 | 1.09
13 | CCCOc1ccc2ccccc2c1CNCCCCCCNCc1c(OCCC)ccc2ccccc12 | 0.79
14 | COc1ccc2nccc(N3CCC(CCNCc4ccc5c(n4)NC(=O)CS5)CC3)c2c1 | 0.21
15 | O=C(/C=C/c1ccc(Cl)cc1Cl)NCCCCCN1CCC(c2c[nH]c3ccccc23)CC1 | 0.94
16 | c1ccc2nc(NCCCCCCCCNc3ccc4ccccc4n3)ccc2c1 | 0.27
17 | NCCCNc1nc(Nc2cccc(C(N)=O)c2)c2c(=O)[nH]ccc2n1 | 0.59
18 | O=C(Nc1ccc(OC(F)(F)F)cc1)NC1CCN(c2ccnc3ccccc23)C1 (stereo not given) | 0.24
19 | CN(C(=O)NCCc1ccccc1)C1CCN(CCCCCNC(=O)/C=C/c2ccc(Cl)c(Cl)c2)CC1 | 0.68
20 | Cc1nnc2c(NC(=O)NC3CCCC3)cc3cc(-c4ccc(CN5CCCCC5)cc4)ccc3n12 | 0.95
21 | CN1CCN(c2cccc(NC(=O)c3ccc(-c4ccc(C#N)cc4)cc3)c2)CC1 | 1.26
22 | CN(C)CCNCc1ccc(-c2ccc3c(Nc4ccc(Oc5ccccc5)cc4)ccnc3c2)o1 | 0.28
23 | Cc1[nH]c2ccc(-c3ccc(OC(F)(F)F)cc3)cc2c(=O)c1C#N | 0.02
24 | O=C(Cn1nc(Br)nc1[N+](=O)[O-])NCC1CCCCC1 | 1.1

Row | SMILES | IC50 [µM]
25 | O=C(Cc1ccc(NC(=O)c2ccc(O)c(-c3ccc(Cl)c(Cl)c3)c2)cc1)NCCc1ccc(Cl)c(Cl)c1 | 0.72
26 | CCCN(Cc1ccc(C)cc1)Cc1cc(=O)c2cc(Cl)ccc2[nH]1 | 1.05
27 | CN(C)CCOC(=O)C1(O)CCC2CC1C2(C)C (stereo not given) | 0.98
28 | CC(C)C[C@@H](NC(=O)NC1CCC(CCN2[C@@H]3CC[C@H]2CC(OC(=O)C(CO)c2ccccc2)C3)CC1)C(O)(c1ccccc1)c1ccccc1 (stereo not given in full) | 1.07
29 | CN(C)Cc1ccc(CN2CCN(CCOc3ccc(-c4ccc(Cl)cc4)cc3)CC2)o1 | 1.02
30 | Cn1cccc1CCNCc1ccc(-c2cccc(-c3nc4ccccc4[nH]3)c2)cc1 | 1.21
31 | CN(C)CCCOc1ccccc1CN1CC[C@H](NC(=O)c2ccc(Cl)c(Cl)c2)C1 | 1.11
32 | O=C1COc2ccccc2N1CCN1CCC(NCc2ccc(-c3cccs3)cc2)CC1 | 1.43
33 | c1ccc(C2CCN(Cc3ccc(-c4c[nH]c5nc(NC6CCCC6)ncc45)cc3)CC2)cc1 | 1.01
34 | O=C(C=Cc1ccc(Cl)c(Cl)c1)NC1CCN(CCc2ccccc2)CC1 | 0.59
35 | Cc1ccc(O)c(-c2cc(C(=O)Nc3ccc(S(=O)(=O)N4CCCCC4)cc3)[nH]n2)c1 | 0.81
36 | S=C(NCCCCCN1CCC(c2c[nH]c3ccccc23)CC1)Nc1ccc(Cl)c(Cl)c1 | 0.71
37 | COc1ccc(-n2nc(C)c3c2NC(=O)CC3c2ccccc2OCc2ccc(F)cc2)cc1 (stereo not given) | 0.85
38 | CC(C)(C)C(=O)Nc1ccc(C(=O)Nc2cccc(-c3nc4ccccc4[nH]3)c2)cc1 | 0.28
39 | CC1CCN(Cc2c(O)ccc3c(CN4CCC(C)CC4)c(O)ccc23)CC1 | 0.13
40 | CN(C)CCOc1cc(NC(=O)Nc2ccc(Cl)cc2C(F)(F)F)ccc1I | 0.93
41 | CCN(CC)CCNc1ccnc2ccc3ccccc3c12 | 0.22
42 | Cc1ccc(C)c(NC(=O)NC2CCN(c3ccnc(Nc4ccc(F)cc4)n3)C2)c1 (stereo not given) | 0.68
43 | OCC1CCN(Cc2ccc(-c3ccc(-c4nc5ccc(F)cc5[nH]4)s3)cc2)CC1 | 0.85
44 | CCOC(=O)N/N=C/[C@H](CCc1ccccc1)NC(=O)[C@H](CC(C)C)NC(=O)c1cc2cccc(OC)c2o1 | 0.88
45 | CC[C@H](C)CNC(=O)c1cccc(-c2cccc(CNCC3CNCCCO3)c2)n1 (stereo not given in full) | 1.08
46 | NC(N)=Nc1ccc(OCCCCCOc2ccc(N=C(N)N)cc2)cc1 | 0.19
47 | CC(=O)Nc1ccc(CN2CCC(NC(=O)c3ccc(-c4cccc(Cl)c4)s3)CC2)cc1 | 0.79
48 | Cn1c(NC(=O)c2ccc(CNC(=O)c3ccc(O)c(-c4ccc(Cl)c(Cl)c4)c3)cc2)nc2ccccc21 | 0.84

Row | SMILES | IC50 [µM]
49 | CCN(CC)CCN(Cc1ccc(-c2ccc(C(F)(F)F)cc2)cc1)C(=O)Cn1cc(CCCCc2cccc(F)c2F)c(=O)c2ccccc21 | 0.88
50 | O=C(N[C@@H](CC1CCCCC1)C(=O)NCc1cccc(C(F)(F)F)c1)c1ccc(O)c(-c2ccc(Cl)c(Cl)c2)c1 | 0.22
51 | COc1cccc(Nc2nnc(SCC(=O)NNC(=O)c3ccccn3)s2)c1 | 0.38
52 | CC(C)OC(=O)c1ccc(NC(=O)N[C@@H](Cc2ccc(O)cc2)C(=O)NC2CCC(CCN3[C@@H]4CC[C@H]3c3ccccc34)CC2)cc1 (stereo not given in full) | 0.83
53 | Oc1[nH]c2ccccc2c1N=NC(=S)N1CCOCC1 | 0.91
54 | CC(Cc1ccc(Cl)cc1)Nc1nc(NC2CCCC2)nc(N2CCC(C#N)(c3ccccc3)CC2)n1 (stereo not given) | 0.71
55 | Cc1cc(S(=O)(=O)N2CCCCC(c3ccc(C(F)(F)F)cc3)=N2)c(Cl)cc1Cl | 0.5
56 | CC(C)C(NC(=O)c1c(F)cccc1F)C(=O)Nc1ccc(Cc2nc3ccccc3s2)cc1 (stereo not given) | 0.45
57 | Cc1cc(N2CCCC2)nc(Nc2ccc(NC(=O)COc3ccccc3)cc2)n1 | 0.65
58 | CCNc1cc(CCCC(=O)OCC)nc(Nc2ccc(C)cc2)n1 | 0.77
59 | CN1CCCN(Cc2cccc(-c3ccc(NS(=O)(=O)c4cccc5cccnc45)cc3)c2)CC1 | 0.96
60 | O=C(C=Cc1ccc(Cl)c(Cl)c1)NCCCCCN1CCC(CCCNC(=O)/C=C/c2ccccc2)CC1 | 0.59
61 | Cc1ccc(Cn2ncc(NC3CCNCC3)c(Cl)c2=O)cc1NC(=O)Nc1ccc(-c2ccccc2)cc1 | 0.66
62 | COc1ccc2nc3cc(Cl)ccc3c(NCCN(C)C)c2c1 | 0.19
63 | Nc1nccc(-c2ccc3c(-c4cccc(F)c4)cnc(N)c3c2)n1 | 1.02
64 | Cc1ccc2c(c1[N+](=O)[O-])N=NCC2Oc1ccccc1 (stereo not given) | 0.87
65 | C[C@H](Cc1ccc(OCCCCCCOc2ccc(C[C@@H](C)NC[C@H](O)c3cccc(Cl)c3)cc2)cc1)NC[C@H](O)c1cccc(Cl)c1 | 0.3
66 | COc1ccc2nccc(N3CCC(SCCNS(=O)(=O)c4ccc5c(c4)OCCO5)C3)c2n1 (stereo not given) | 0.98
67 | OCCOCCNCc1cccc(C#Cc2cc3ncnc(Nc4ccc(OCc5cccc(F)c5)c(Cl)c4)c3s2)n1 | 0.78
68 | O=C(Nc1cccc(C(F)(F)F)c1)c1ccc(S(=O)(=O)NCC2CCCN2CC2CCCCC2)cc1 (stereo not given) | 0.75
69 | COc1ccc(Nc2ncc3c(-c4cccc(NC(=O)Cc5cccc(O)c5)c4)c[nH]c3n2)cc1OC | 0.7
70 | Cc1ccc(CN2CCN(c3cc4c(cc3Cl)CCN4C(=O)Cc3ccc(Cl)c(NC(=O)Nc4cccc(C#N)c4)c3)CC2)cc1 | 1.13

— PubChem BioAssay AID2305 (GlaxoSmithKline (GSK), 2010)
